Activity calls are given as the source filed them. The rule behind the calls is not given here.
Key:
[1] = target: T1, Protein mono-ADP-ribosyltransferase PARP3 (Homo sapiens, UniProt Q9Y6F1); assay: Binding affinity to human PARP3 PARP domain by isothermal titration […]
T1 sequence (Q9Y6F1 whole entry): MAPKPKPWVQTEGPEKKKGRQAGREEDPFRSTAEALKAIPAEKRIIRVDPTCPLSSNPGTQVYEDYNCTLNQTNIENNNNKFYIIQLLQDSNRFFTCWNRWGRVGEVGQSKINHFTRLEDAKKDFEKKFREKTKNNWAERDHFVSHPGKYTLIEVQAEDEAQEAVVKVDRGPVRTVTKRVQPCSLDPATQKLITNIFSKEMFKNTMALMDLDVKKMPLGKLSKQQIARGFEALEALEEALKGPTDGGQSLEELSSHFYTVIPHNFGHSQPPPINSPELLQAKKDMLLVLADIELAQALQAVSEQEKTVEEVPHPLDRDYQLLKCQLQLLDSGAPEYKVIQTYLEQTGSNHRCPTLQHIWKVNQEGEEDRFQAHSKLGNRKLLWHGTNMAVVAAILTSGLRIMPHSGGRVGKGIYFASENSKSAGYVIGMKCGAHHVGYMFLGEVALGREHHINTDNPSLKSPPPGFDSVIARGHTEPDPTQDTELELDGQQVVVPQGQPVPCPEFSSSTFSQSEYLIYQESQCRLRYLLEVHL

[2] = target: T2, Protein mono-ADP-ribosyltransferase PARP3 (Homo sapiens) (UniProt Q9Y6F1); assay: Inhibition of human PARP3 auto-ADP ribosylation by Western blotting
T2 sequence (whole entry): T1 sequence (Q9Y6F1 whole entry)

[3] = target: T3, Poly [ADP-ribose] polymerase 1 (Homo sapiens, UniProt P09874)
Description: Binding affinity to human PARP1 by isothermal titration colorimetry

[4] = target: T3, Poly [ADP-ribose] polymerase 1; assay: Inhibition of human PARP1

T3 sequence (P09874 whole entry): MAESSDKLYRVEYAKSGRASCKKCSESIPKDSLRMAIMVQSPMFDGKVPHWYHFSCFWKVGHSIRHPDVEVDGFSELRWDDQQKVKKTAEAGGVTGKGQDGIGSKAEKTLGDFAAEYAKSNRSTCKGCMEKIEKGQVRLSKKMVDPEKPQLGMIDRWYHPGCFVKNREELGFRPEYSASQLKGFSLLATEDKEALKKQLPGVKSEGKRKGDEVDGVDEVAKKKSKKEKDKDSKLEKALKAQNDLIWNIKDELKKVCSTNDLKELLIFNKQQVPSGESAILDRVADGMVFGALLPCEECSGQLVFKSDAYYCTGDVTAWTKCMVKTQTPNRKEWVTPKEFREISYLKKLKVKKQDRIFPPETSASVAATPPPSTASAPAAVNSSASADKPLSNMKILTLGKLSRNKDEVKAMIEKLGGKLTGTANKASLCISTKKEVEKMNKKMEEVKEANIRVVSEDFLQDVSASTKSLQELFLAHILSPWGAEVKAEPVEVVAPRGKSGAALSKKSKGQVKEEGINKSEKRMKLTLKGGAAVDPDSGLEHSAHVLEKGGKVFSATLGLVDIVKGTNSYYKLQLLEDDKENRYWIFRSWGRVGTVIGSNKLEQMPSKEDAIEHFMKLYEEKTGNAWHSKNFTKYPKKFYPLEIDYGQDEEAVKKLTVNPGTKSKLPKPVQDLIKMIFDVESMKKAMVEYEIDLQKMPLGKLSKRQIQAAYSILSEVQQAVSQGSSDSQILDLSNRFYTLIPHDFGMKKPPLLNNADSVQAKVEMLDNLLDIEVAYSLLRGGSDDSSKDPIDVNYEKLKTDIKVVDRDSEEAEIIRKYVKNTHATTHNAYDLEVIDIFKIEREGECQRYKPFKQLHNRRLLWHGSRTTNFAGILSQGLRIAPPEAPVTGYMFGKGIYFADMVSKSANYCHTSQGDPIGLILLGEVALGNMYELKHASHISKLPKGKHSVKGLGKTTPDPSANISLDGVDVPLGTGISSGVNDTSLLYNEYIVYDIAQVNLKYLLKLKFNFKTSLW

Kd [1] | Activity [2] | Kd [3] | IC50 [4] | SMILES
> 2000 nM |  |  |  | Nc1cccc(C(=O)O)c1 [3-AMINOBENZOIC ACID]
 | Active | 19 nM | 3.4 nM | O=C(c1cc(Cc2n[nH]c(=O)c3ccccc23)ccc1F)N1CCCNCC1
